Holding throughout (experiment): Binding of doxorubicin by synthetic oligopeptide, absorbance titration
For test [1], the target named is synthetic oligopeptide, Peptide 8, DK(Fmoc)GK(Fmoc)DGGC (DK(Fmoc)GK(Fmoc)DGGC-amide). The following applies: 50 μM doxorubicin in 0.1M phosphate buffer at pH 7.0, 475 nm, fit to single hyperbola; read-out: Kd (apparent dissociation constant). An excerpt: (§1) Experiments have been conducted to assess the use of synthetic oligopeptides to bind the drug doxorubicin. Binding was followed by changes in the visible spectrum of doxorubicin, and analyzed by titrating the drug absorption spectrum at 475 nm or 565 nm with varying concentrations of peptide, in pH 7.0 0.1M phosphate buffer. Binding curves were fit to a single hyperbola with the program Enzfitter (Elsevier-Biosoft). These peptides were designed to test the effectiveness in intercalating doxorubicin of a 1,3-spacing between amino acids containing aromatic groups in their side chains (i.e., a single non-aromatic amino acid intervenes between the two residues having aromatic side chains). The amino acids are C, cys; K, lys; W, trp; G, gly; E, glu; D, asp; Fmoc, 9-fluorenylmethoxycarbonyl, attached to the lysine epsilon-amino group; and MIANS, 2-(4'-maleimidylanilino)naphthalene-6-sulfonic acid attached to cysteine.
No absorbance change was observed when the oligopeptide was added to buffer in the absence of doxorubicin. […] Oligopeptide carrier alone was added to the reference cuvette. The binding constant is derived from the nonlinear least squares best fit to a single hyperbola using the program Enzfitter (Elsevier-Biosoft), yielding an apparent dissociation constant of 22 μM.

For test [2], the target named is synthetic oligopeptide, Peptide 3, […]-amide. The following applies: pH 7.0 0.1M phosphate buffer, doxorubicin absorption at 475 nm or 565 nm titrated with peptide.
Source text: as §1

The target in test [3] is synthetic oligopeptide, Peptide 7, EK(Fmoc)GK(Fmoc)EGGC. The following applies: pH 7.0 0.1M phosphate buffer; 1,3 spacing of aromatic side chains.
Source text: as §1

Test [4] has as its target synthetic oligopeptide, Peptide 4, KK(Fmoc)GK(Fmoc)KGGC. The following applies: pH 7.0 0.1M phosphate buffer, doxorubicin absorption at 475 nm or 565 nm titrated with peptide.
Source text: as §1

Test [5] addresses synthetic oligopeptide, Peptide 1, CKWGWK-amide. As to conditions: pH 7.0 0.1M phosphate buffer, doxorubicin absorption at 475 nm or 565 nm titrated with peptide.
Source text: as §1

Test [6] concerns the target synthetic oligopeptide, Peptide 9, EK(Fmoc)EK(Fmoc)EGGC. As to conditions: pH 7.0 0.1M phosphate buffer, doxorubicin absorption at 475 nm or 565 nm titrated with peptide.
Source text: as §1

Test [7] concerns the target synthetic oligopeptide, Peptide 2, CKWGWGWK-amide. As to conditions: pH 7.0 0.1M phosphate buffer, doxorubicin absorption at 475 nm or 565 nm titrated with peptide.
Source text: as §1

Test [8] concerns the target synthetic oligopeptide, Peptide 10, EEK(Fmoc)GK(Fmoc)EEGGC. As to conditions: pH 7.0 0.1M phosphate buffer; doxorubicin absorption at 475 nm or 565 nm titrated with peptide.
Source text: as §1

Test [9] addresses synthetic oligopeptide, Peptide 5, EK(Fmoc)GGK(Fmoc)EGGC. As to conditions: pH 7.0 0.1M phosphate buffer, 1,4 spacing of aromatic side chains.
Source text: as §1, with “These peptides were designed to test the effectiveness in intercalating doxorubicin of a 1,3-spacing between amino acids containing aromatic groups in their side chains (i.e., a single non-aromatic amino acid intervenes between the two residues having aromatic side chains).” left out

Test [10] addresses synthetic oligopeptide, Peptide 6, EK(Fmoc)K(Fmoc)EGGC. The following applies: pH 7.0 0.1M phosphate buffer, 1,2 spacing of aromatic side chains.
Source text: as §1, with “These peptides were designed to test the effectiveness in intercalating doxorubicin of a 1,3-spacing between amino acids containing aromatic groups in their side chains (i.e., a single non-aromatic amino acid intervenes between the two residues having aromatic side chains).” left out

Test [11] deals with synthetic oligopeptide, Peptide 11, EC(MIANS)GC(MIANS)EGGC(Acm).
Source text: as §1
This oligopeptide was prepared by first synthesizing the oligopeptide ECGCEGGC(Acm), wherein "Acm" represents an acetamidomethyl protecting group. The synthesis was conducted using the solid phase methodology of Barany and Merrifield, supra, and Houghten, R. A., Proc Nat. Acad. Sci. USA 82:5131, 1985. The number of cysteine thiols per peptide was 1.8 as measured by titration with Ellman's reagent. […]
The peptide concentration was determined with ninhydrin. […]

Turning to `COc1cccc2c1C(=O)c1c(O)c3c(c(O)c1C2=O)C[C@@](O)(C(=O)CO)C[C@@H]3O[C@H]1C[C@H](N)[C@H](O)[C@H](C)O1` [Doxorubicin, doxorubicin], the Kd was 22 µM in test [1]; “same” in [2]; “no detectable binding” in test [2] (listed as doxorubicin); 280 µM in test [3]; “same” in test [4]; “no detectable binding” in test [4] (listed as doxorubicin). Moreover, the Kd entry in test [5] was “no detectable”; in test [5] (listed as doxorubicin) it was “no detectable binding”; in [6], “no detectable”; in test [6] (listed as doxorubicin), “binding is not observed”; in test [7], “same”; in [7] (listed as doxorubicin), “no detectable binding”. Besides, the Kd was 33 µM in test [8]; “same” in [9]; “the same result is obtained” in test [9] (listed as doxorubicin); “same” in [10]; “undetectable binding” in test [10] (listed as doxorubicin); 48 µM in [11] (pH 7.0 0.1M phosphate buffer, at 565 or 580 nm, read-out: Kd (best-fit apparent dissociation constant)). In test [11] (MIANS peptide compared with FMOC peptide, 1,3 spacing), the “improvement of binding of doxorubicin by MIANS side chain versus FMOC” value is “about 6 fold”.

Source of the values: patent US5106951A, “Antibody conjugates” (NeoRx Corporation, priority 1989, dated 1992).
